From US20230203060A1 (GENFLEET THERAPEUTICS (SHANGHAI) INC., priority 2020, published 2023)

Key:
[1] = system: phosphorylated ERK downstream of KRAS G12C in MIA PaCa2 cells; test: Cell p-ERK detection experiment (HTRF) in MIA PaCa2; format: cell-based, human; conditions: Homo sapiens, MIA PaCa-2, 2 h, MIA PaCa2 cells, 2 hours with compound, Advance ERK phospho-T202/Y204 HTRF kit; read-out: p-ERK IC50
Excerpt: Raw materials and instruments: MIA PaCa-2 purchased from ATCC; article number: CRL-1420; batch number: 63143594; DMEM purchased from Gibco; article number: 11995-065; batch number: 2186878; FBS purchased from Gibco; article number: 10099-141; batch number: 2109290CP; Horse serum purchased from Gibco; article number: 16050-122; batch number: 1818976; Trypsin-EDTA purchased from Gibco; article number: 25200-072; batch number: 2085552; PS purchased from Gibco; article number: 15140-122; batch number: 2145451; DMSO purchased from VWR AMRESCO; article number: 0231-500ML; batch number: 0457C072; 96-well cell culture plate purchased from Corning; article number: 3599; batch number: 22718601; white opaque 96-well plate purchased from Cisbio; article number: 66PL96025; batch number: N°05; Advance ERK phospho-T202/Y204 kit purchased from Cisbio; article number: 64AERPEH; batch number: 11D; microplate reader purchased from PerkinElmer; model: Envision MLD2105-0020; equipment number 1050369.
MIA PaCa2 was a KRAS G12C mutant human pancreatic cancer cell line cultured in 10% FBS+2.5% Horse serum DMEM culture medium. Cells at logarithmic growth stage were taken, digested with trypsin-EDTA, then collected and counted, and 2.5E4 cells were inoculated in a 96-well cell culture plate and cultured overnight. A 3.16-fold gradient concentration stock solution of 1000× compound was prepared with DMSO, and diluted 200-fold to 5× compound stock solution with culture medium. On the second day after cell inoculation, 5× compound stock solution was added to each cell culture well, with a final concentration of 1× and a DMSO content of 0.1%. DMSO was used as experimental control (control). After the compound was added and cultured for two hours, the residual culture medium was removed. 50 μL of cell lysate (from Advance ERK phospho-T202/Y204 kit, the same below) was added to each well, mixed well and incubated for 30 minutes, and then 16 μL of the mixed solution was transferred to a white opaque 96-well plate, and 16 μL of cell lysate was added to the blank wells. After the transfer was completed, 4 μL of p-ERK HTRF antibody (from Advance ERK phospho-T202/Y204 kit) mixture was added to each well, incubated for 4 hours, and the fluorescence value was read with the microplate reader. The inhibition rate of the compound IR (%)=(RLU control -RLU compound)/(RLU control-RLU blank)×100% was calculated. The gradient dilution concentration of the compound and the corresponding cell proliferation inhibition rate were fitted by Prism 8 four-parameter method, and the IC50 value was calculated. The compounds prepared in the above embodiments of the present disclosure have inhibitory activity of 0.0001 μM to 1 μM on the phosphorylated ERK level downstream of the cell channel of KRAS G12C protein mutant; some compounds have inhibitory activity of 0.001 μM to 1 μM or 0.001 μM to 0.5 μM on phosphorylated ERK level downstream of cell channel of KRAS G12C protein mutant.

[2] = system: A549 cells (KRAS G12S mutant); test: Cell proliferation inhibition experiment, 3D spheroid, CellTiter-Glo, A549; format: cell-based, human; conditions: Homo sapiens, A549, 120 h, A549 (KRAS G12S mutant) 3D spheroid, 5 days with compound, CellTiter-Glo; read-out: A549 IC50
Outline: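 IC50 values come from four-parameter fits of proliferation inhibition, measured by CellTiter-Glo after 5-day compound exposure. Spheroids of H358 (800 cells) or A549 (400 cells) were formed overnight in 2% FBS medium; DMSO held at 0.1%, doses spaced 3.16-fold.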

Compound	IC50 [1]	IC50 [2]
C=CC(=O)N1CCN2C(=O)c3c(N4CCC(O)C4(C)C)nc(-c4c(O)cccc4F)c(Cl)c3OC[C@H]2C1 (stereo partly drawn) [Z241, (6aR)-8-acryloyl-1-(3-hydroxy-2,2-dimethylpyrrolidin-1-yl)-4-chloro-3-(2-fluoro-6-hydroxyphenyl)-6,6a,7,8,9,10-hexahydro-12H-pyrazino[2,1-c]pyrido[3,4-f][1,4]oxazepin-12-one]	22 nM	–
C=CC(=O)N1CCN2C(=O)c3c(N4CC(N(C)C5COC5)CC4(C)C)nc(-c4c(O)cccc4F)c(Cl)c3OC[C@H]2C1 (stereo partly drawn) [Z326, (6aR)-8-acryloyl-4-chloro-1-(2,2-dimethyl-4-(methyl(oxetan-3-yl)amino)pyrrolidin-1-yl)-3-(2-fluoro-6-hydroxyphenyl)-6,6a,7,8,9,10-hexahydro-12H-pyrazino[2,1-c]pyrido[3,4-f][1,4]oxazepin-12-one]	6 nM	8840 nM
C=CC(=O)N1CCN2C(=O)c3c(N4CC(N5CCOCC5)CC4(C)C)nc(-c4c(O)cccc4F)c(Cl)c3OC[C@H]2C1 (stereo partly drawn) [Z344, (6aR)-8-acryloyl-4-chloro-1-((2,2-dimethyl-4-morpholinopyrrolidin-1-yl))-3-(2-fluoro-6-hydroxyphenyl)-6,6a,7,8,9,10-hexahydro-12H-pyrazino[2,1-c]pyrido[3,4-f][1,4]oxazepin-12-one]	10 nM	3720 nM
C=CC(=O)N1CCN2C(=O)c3c(N4C[C@@H](OC)C[C@@H]4C)nc(-c4c(O)cccc4F)c(Cl)c3OC[C@H]2C1 [Z260a, (6aR)-8-acryloyl-4-chloro-3-(2-fluoro-6-hydroxyphenyl)-1-((2S,4S)-4-methoxy-2-methylpyrrolidin-1-yl)-6,6a,7,8,9,10-hexahydro-12H-pyrazino[2,1-c]pyrido[3,4-f][1,4]oxazepin-12-one]	22 nM	> 30000 nM
C=CC(=O)N1CCN2C(=O)c3c(N4C[C@@](C)(O)CC4(C)C)nc(-c4c(O)cccc4F)c(Cl)c3OC[C@H]2C1 (single isomer, unassigned) [Z243-1]	8 nM	3100 nM
C=CC(=O)N1CCN2C(=O)c3c(N4C[C@H](OC)CC4(C)C)nc(-c4c(O)cccc4F)c(Cl)c3OC[C@H]2C1 (single isomer, unassigned) [Z244-2]	5 nM	2080 nM
C=CC(=O)N1CCN2C(=O)c3c(N4C[C@H](N(C)CCOC)CC4(C)C)nc(-c4c(O)cccc4F)c(Cl)c3OC[C@H]2C1 (single isomer, unassigned) [Z296-2]	32 nM	3790 nM
C=CC(=O)N1CCN2C(=O)c3c(N4CCCC4(C)C)nc(-c4c(O)cccc4F)c(Cl)c3OC[C@H]2C1 [Z22, (6aR)-8-acryloyl-4-chloro-1-(2,2-dimethylpyrrolidin-1-yl)-3-(2-fluoro-6-hydroxyphenyl)-6,6a,7,8,9,10-hexahydro-12H-pyrazino[2,1-c]pyrido[3,4-f][1,4]oxazepin-12-one]	26 nM	> 30000 nM
C=CC(=O)N1CCN2C(=O)c3c(N4CC[C@H](OC)[C@@H]4C)nc(-c4c(O)cccc4F)c(Cl)c3OC[C@H]2C1 [Z347-1, (6aR)-8-acryloyl-4-chloro-3-(2-fluoro-6-hydroxyphenyl)-1-((2S,3S)-3-methoxy-2-methylpyrrolidin-1-yl)-6,6a,7,8,9,10-hexahydro-12H-pyrazino[2,1-c]pyrido[3,4-f][1,4]oxazepin-12-one]	11 nM	9550 nM
C=CC(=O)N1CCN2C(=O)c3c(N4C[C@H](O)CC4(C)C)nc(-c4c(O)ccc(Cl)c4F)c(F)c3OC[C@H]2C1 (single isomer, unassigned) [Z340-2]	–	3170 nM
C=CC(=O)N1CCN2C(=O)c3c(N4CC(OC)CC4(C)C)nc(-c4c(O)cccc4F)c(Cl)c3OC[C@H]2C1 (stereo partly drawn) [Z244, (6aR)-8-acryloyl-4-chloro-3-(2-fluoro-6-hydroxyphenyl)-1-(4-methoxy-2,2-dimethylpyrrolidin-1-yl)-12-oxo-6,6a,7,8,9,10-hexahydro-12H-pyrazino[2,1-c]pyrido[3,4-f][1,4]oxazepin-12-one]	19 nM	–
C=CC(=O)N1CCN2C(=O)c3c(N4C[C@H](N(C)C)C[C@@H]4C)nc(-c4c(O)cccc4F)c(Cl)c3OC[C@H]2C1 [Z237-1, (6aR)-8-acryloyl-4-chloro-1-((2S,4R)-4-(dimethylamino)-2-methylpyrrolidin-1-yl)-3-(2-fluoro-6-hydroxyphenyl)-6,6a,7,8,9,10-hexahydro-12H-pyrazino[2,1-c]pyrido[3,4-f][1,4]oxazepin-12-one]	30 nM	–
C=CC(=O)N1CCN2C(=O)c3c(N4CCN(CCOC)C(C)(C)C4)nc(-c4c(O)cccc4F)c(Cl)c3OC[C@H]2C1 [Z321, (6aR)-8-acryloyl-4-chloro-3-(2-fluoro-6-hydroxyphenyl)-1-(4-(2-methoxyethyl)-3,3-dimethylpiperazin-1-yl)-6,6a,7,8,9,10-hexahydro-12H-pyrazino[2,1-c]pyrido[3,4-f][1,4]oxazepin-12-one]	50 nM	–
C=CC(=O)N1CCN2C(=O)c3c(N4CC(CO)CC4(C)C)nc(-c4c(O)cccc4F)c(Cl)c3OC[C@H]2C1 (stereo partly drawn) [Z240, (6aR)-8-acryloyl-4-chloro-3-(2-fluoro-6-hydroxyphenyl)-1-(4-(hydroxymethyl)-2,2-dimethylpyrrolidin-1-yl)-6,6a,7,8,9,10-hexahydro-12H-pyrazino[2,1-c]pyrido[3,4-f][1,4]oxazepin-12-one]	22 nM	–
C=CC(=O)N1CCN2C(=O)c3c(N4CCN(C5CC5)C[C@@H]4C)nc(-c4c(O)cccc4F)c(Cl)c3OC[C@H]2C1 [Z312-1, (6aR)-8-acryloyl-4-chloro-1-((S)-4-cyclopropyl-2-methylpiperazin-1-yl)-3-(2-fluoro-6-hydroxyphenyl)-6,6a,7,8,9,10-hexahydro-12H-pyrazino[2,1-c]pyrido[3,4-f][1,4]oxazepin-12-one]	194 nM	–
C=CC(=O)N1CCN2C(=O)c3c(N4CC[C@@H]5C[C@@H]54)nc(-c4c(O)cccc4F)c(Cl)c3OC[C@H]2C1 (single isomer, unassigned) [Z39-2]	88 nM	–
C=CC(=O)N1CCN2C(=O)c3c(N4CC(O)CC4(C)C)nc(-c4c(O)cccc4F)c(C)c3OC[C@H]2C1 (single isomer, unassigned) [Z336-2]	63 nM	–
C=CC(=O)N1CCN2C(=O)c3c(N4C[C@H](O)[C@H]4C)nc(-c4c(O)cccc4F)c(Cl)c3OC[C@H]2C1 (single isomer, unassigned) [Z102-4]	134 nM	–
C=CC(=O)N1CCN2C(=O)c3c(N4CC(C)(O)CC4(C)C)nc(-c4c(O)cccc4F)c(Cl)c3OC[C@H]2C1 (stereo partly drawn) [Z243, (6aR)-8-acryloyl-4-chloro-3-(2-fluoro-6-hydroxyphenyl)-1-(4-hydroxy-2,2,4-trimethylpyrrolidin-1-yl)-6,6a,7,8,9,10-hexahydro-12H-pyrazino[2,1-c]pyrido[3,4-f][1,4]oxazepin-12-one]	19 nM	–
C=CC(=O)N1CCN2C(=O)c3c(N4CCO[C@](C)(CO)C4)nc(-c4c(O)cccc4F)c(Cl)c3OC[C@H]2C1 (single isomer, unassigned) [Z333-1]	–	> 30000 nM
C=CC(=O)N1CCN2C(=O)c3c(N4CCO[C@](C)(COC)C4)nc(-c4c(O)cccc4F)c(Cl)c3OC[C@H]2C1 (single isomer, unassigned) [Z332-1]	130 nM	–
C=CC(=O)N1CCN2C(=O)c3c(N4Cc5cn(C)nc5C4(C)C)nc(-c4c(O)cccc4F)c(Cl)c3OC[C@H]2C1 [Z310, (6aR)-8-acryloyl-1-(2,6,6-trimethylpyrrolo[3,4-c]pyrazol-5(2H,4H,6H)-yl)-4-chloro-3-(2-fluoro-6-hydroxyphenyl)-6,6a,7,8,9,10-hexahydro-12H-pyrazino[2,1-c]pyrido[3,4-f][1,4]oxazepin-12-one]	104 nM	–
